From EP4467154A1, “MEDICINE FOR TREATING OR PREVENTING CANCER” (CHUGAI SEIYAKU KABUSHIKI KAISHA, priority 2022, dated 2023)
Where two headings read alike, the source gives them in different places. Each block holds one molecule with its values, some of them ahead of it. Bridge positions count the residues as written; N and C are the ends. Square brackets hold non-standard residues; d marks the D form. Peptide text beside a SMILES is read from it. hPhe(3,5-F2-4-CF3) = N[C@@H](CCc1cc(F)c(C(F)(F)F)c(F)c1)C(=O)O; NEtPhe(4-Me) = CCN[C@@H](Cc1ccc(C)cc1)C(=O)O; NMeGly(cPent) = CN[C@H](C(=O)O)C1CCCC1; NMeD = CN[C@@H](CC(=O)O)C(=O)O; NMeL = CN[C@@H](CC(C)C)C(=O)O; NMeA = CN[C@@H](C)C(=O)O; Ac5c = NC1(C(=O)O)CCCC1; Aze = O=C(O)[C@@H]1CCN1; Sar = CNCC(=O)O

Experiments:
[1] = system: lung cancer line NCI-H1373 (KRAS-G12C); assay: In vivo antitumor activity, NCI-H1373 xenograft model (Example 11); parameters: species or system Nude mice; settings: compound 1 5 mg/kg orally once a day, TNO155 5 mg/kg orally twice a day, 35 days, Figure 19
Description: A xenograft model to which lung cancer line NCI-H1373 (KRAS-G12C) was transplanted was used to evaluate in vivo antitumor activity due to combined use of compound 1 and TNO155. Nude mice were subcutaneously transplanted with 5 × 10^6 cells per mouse, and when the tumor volume reached 200 to 300 mm^3, the nude mice were randomized and administration of compound 1 and/or the compound for combined use was started (n = 8). Compound 1 was orally administered once a day and TNO155 was orally administered twice a day for an administration period of 35 days. The doses of the agents were 5 mg/kg for compound 1 and 5 mg/kg for TNO155. Compound 1 was dissolved in 10% DMSO/5% Cremphor EL/85% Distilled water and TNO155 was dissolved in 0.5% Tween 80/0.5% methylcellulose/99% distilled water, and administered. From the tumor volume data on the last measurement day, the tumor growth inhibition rate (Tumor Growth Inhibition %: TGI%) was calculated using the following formulas. […] Tumor growth inhibition rate (TGI%) = (1−TV/CV) × 100 [formula] Tumor volume (mm^3) = 1/2 × major axis (mm) × minor axis (mm) × minor axis (mm) [formula] [formula] • TV: Mean of the amount of change in tumor volume in the compound 1 monotherapy group, the TNO155 monotherapy group, or the combined use group • CV: Mean of the amount of change in tumor volume in the vehicle group

[2] = system: NCI-H1373 (KRAS-G12C); assay: In vivo antitumor activity, NCI-H1373 xenograft model (Example 12); parameters: species or system Nude mice; settings: compound 1 3 mg/kg or 5 mg/kg, compound 2 0.25 mg/kg, orally once a day, 14 days, Figure 21
Method: (§1) A xenograft model to which lung cancer line NCI-H441 (KRAS-G12C) or NCI-H1373 (KRAS-G12C) was transplanted was used to evaluate in vivo antitumor activity due to combined use of compound 1 and compound 2. Nude mice were subcutaneously transplanted with 5 × 10^6 cells per mouse, and when the tumor volume reached 200 to 300 mm^3, randomization was performed and administration of compound 1 and/or the compound for combined use was started (n = 5). Compound 1 and compound 2 were orally administered once a day for an administration period of 14 days. The doses of the agents were 3 mg/kg or 5 mg/kg for compound 1 and 0.25 mg/kg for compound 2. Compound 1 was dissolved in 10% DMSO/5% Cremphor EL/85% Distilled water and compound 2 was dissolved in 10% DMSO/10% Cremphor EL/15% PEG400/15% HPBCD/50% distilled water, and administered. From the tumor volume data on the last measurement day, the tumor growth inhibition rate (Tumor Growth Inhibition %: TGI%) was calculated using the following formulas. […] Tumor growth inhibition rate (TGI%) = (1−TV/CV) × 100 [formula] Tumor volume (mm^3) = 1/2 × major axis (mm) × minor axis (mm) × minor axis (mm) [formula] [formula] • TV: Mean of the amount of change in tumor volume in the compound 1 monotherapy group, the compound 2 monotherapy group, or the combined use group • CV: Mean of the amount of change in tumor volume in the vehicle group

[3] = system: lung cancer line NCI-H441 (KRAS-G12C); assay: In vivo antitumor activity, NCI-H441 xenograft model (Example 12); parameters: species or system Nude mice; settings: compound 1 3 mg/kg or 5 mg/kg, compound 2 0.25 mg/kg, orally once a day, 14 days, Figure 20
Method: as §1

[4] = system: NCI-H358; assay: Cell growth inhibitory activity, ATP (CellTiter-Glo 2.0), isobologram (Example 2), NCI-H358; type: cell-based, Human; settings: 144 hours
Method: (§2) Human cancer cell lines were seeded on a 384-well round bottom ultra-low attachment plate at a concentration of 750 cells per well and cultured in a 5% carbon gas incubator at 37°C. After 24 hours, CellTiter-Glo 2.0 (Promega Corporation) was added to part of the wells (3 wells), and the amount of ATP (V0) was determined using Envision plate readers (PerkinElmer Co., Ltd.). V0 was taken as the amount of ATP at time 0. DMSO alone or compound 1 and/or the compound for combined use each were added to another three wells. Compound 1 and the compound for combined use were used by serially diluting in 8 steps at a common ratio of 3 with 300 nM and 10 or 3000 nM taken as their respective highest concentrations. […] After culturing for 144 hours after addition of DMSO alone or compound 1 and/or the compound for combined use, the amount of ATP (T and V) was determined for the cells to which DMSO alone was added (DMSO-treated group) or the cells to which compound 1 and/or the compound for combined use was added (compound 1 and/or compound for combined use-treated group). […] The growth inhibition rate (Growth Inhibition %: GI%) was calculated using the following formulas. […] (1−(T−V0)/V0) × 100 [formula] (when T < V0) (1−(T−V0)/(V−V0)) × 100 [formula] […]

[5] = system: NCI-H358; settings: read-out: set GI concentration (concentration as a single drug giving GI 50), set GI% 50%, 144 hours, test with trametinib
Method: as §2

[6] = system: NCI-H441; assay: Cell growth inhibitory activity, ATP (CellTiter-Glo 2.0), isobologram (Example 2), NCI-H441; type: cell-based, Human; settings: set GI% 100%, 144 hours, test with RMC-4550
Method: as §2

Compound: C[C@@H]1OCC2(CCN(c3cnc(Sc4ccnc(N)c4Cl)c(N)n3)CC2)[C@@H]1N [TNO155, (3S,4S)-8-(6-amino-5-((2-amino-3-chloropyridine-4-yl)thio)pyrazine-2-yl)-3-methyl-2-oxa-8-azaspiro[4.5]decane-4-amine]
tumor volume, compared with vehicle group [1]: increase in tumor volume suppressed

Compound: CNS(=O)(=O)Nc1nccc(Cc2cc(C(N)=O)c(Nc3ccc(C4CC4)cc3F)c(F)c2F)c1F [compound 2, 2-(4-cyclopropyl-2-fluoro-anilino)-3,4-difluoro-5-[[3-fluoro-2-(methylsulfamoylamino)-4-pyridyl]methyl]benzamide]
tumor volume, compared with vehicle group [2]: increase in tumor volume suppressed | tumor volume, compared with vehicle group [3]: increase in tumor volume suppressed

GI50 ([4]; Homo sapiens, set GI% 50%, single drug, test with trametinib, read-out: set GI concentration (concentration as a single drug giving GI 50)): 0.35 nM
Compound: CC(=O)Nc1cccc(-n2c(=O)n(C3CC3)c(=O)c3c(Nc4ccc(I)cc4F)n(C)c(=O)c(C)c32)c1 [trametinib, N-[3-[3-cyclopropyl-5-(2-fluoro-4-iodo-phenylamino)-6,8-dimethyl-2,4,7-trioxo-3,4,6,7-tetrahydro-2H-pyrido[4,3-d]pyrimidine-1-yl]phenyl]acetamide]

Compound: CC[C@H](C)[C@@H]1NC(=O)[C@H](CC(C)C)N(C)C(=O)C[C@@H](C(=O)N(C)C)N(C)C(=O)[C@H](C2CCCC2)N(C)C(=O)C2(CCCC2)NC(=O)[C@@H]2CCCN2C(=O)[C@H](CCc2cc(F)c(C(F)(F)F)c(F)c2)NC(=O)CN(C)C(=O)[C@H](Cc2ccc(C)cc2)N(CC)C(=O)[C@@H]2CCN2C(=O)[C@H](C)N(C)C1=O [compound 1, (5S,8S,11S,15S,18S,23aS,29S,35S,37aS)-8-((S)-sec-butyl)-18-cyclopentyl-29-(3,5-difluoro-4-(trifluoromethyl)phenethyl)-36-ethyl-11-isobutyl-N,N,5,6,12,16,19,33-octamethyl-35-(4-methylbenzyl)-4,7,10,13,17,20,23,28,31,34,37-undecaoxotetratriacontahydro-2H,4H-spiro[azeto[2,1-u]pyrrolo[2,1-i][1,4,7,10,13,16,19,22,25,28,31]undecaazacyclotetratriacontyne-21,1'-cyclopentane]-15-carboxamide] ([NMeL]I[NMeA][Aze][NEtPhe(4-Me)][Sar][hPhe(3,5-F2-4-CF3)]P[Ac5c][NMeGly(cPent)][NMeD]-NMe2; lactam N-11)
GI50 [5]: 4.6 nM

Compound: Cc1nc(N2CCC3(CC2)CO[C@@H](C)[C@H]3N)c(CO)nc1-c1cccc(Cl)c1Cl [RMC-4550, 3-[(3S,4S)-4-amino-3-methyl-2-oxa-8-azaspiro[4.5]deca-8-yl]-6-(2,3-dichlorophenyl)-5-methyl-2-pyrazinemethanol]
set GI concentration (concentration as a single drug giving GI 100) [6]: 0.35 µM | set GI concentration (concentration as a single drug giving GI 155) ([4]; set GI% 155%, test with RMC-4550): 0.55 µM
